Tested on: coronary arteries of pigs
Test: Drug-loaded polymer stent implanted in pig coronary arteries for one month; morphometric analysis of late loss and percent stenosis
Type: in vivo, pig (Domestic Farm Swine)
Settings: overall conclusion from the pig coronary artery stent studies
Method: Boundaries of a selected coronary artery segment were detected automatically from optically magnified and video-digitized regions of interest. The catheter used for insertion of the stents was used as a scaling device to determine the dimensions of the artery at the site of implantation. The original vessel diameter at the time of implantation was determined.
The catheter used for insertion of the stents was used as a scaling device to determine the dimensions of the artery at the site of implantation. The original vessel diameter at the time of implantation was determined.

CC[C@@]1(O)C(=O)OCc2c1cc1n(c2=O)Cc2cc3ccccc3nc2-1 [camptothecin, Camptothecin]
inhibition of undesirable cell growth associated with vessel injury during coronary angioplasty and stent insertion: effective to inhibit the undesirable cell growth

— patent US20020004679A1, “Topoisomerase inhibitors for prevention of restenosis” (Quanam Medical Corporation, priority 1998, published 2002)
